Reference: patent publication US11427567B2, “Imidazolyl pyrimidinylamine compounds as CDK2 inhibitors” (Incyte Corporation, priority 2019, dated 2022)

Target: CDK2/Cyclin E1 (Homo sapiens (Human), UniProt P24941)
Assay: CDK2/Cyclin E1 HTRF enzyme activity assay (Example A)
Format: biochemical
Settings: 1 mM ATP
Method: Assays were conducted in white 384-well polystyrene plates in a final reaction volume of 8 μL. […] HTRF signals were read after 1 hour at room temperature on a PHERAstar FS plate reader (BMG Labtech). Data was analyzed with IDBS XLFit and GraphPad Prism 5.0 software using a three or four parameter dose response curve to determine IC50 for each compound.

IC50, ≤ 0.05 µM:
CN(C)Cc1ccc(-n2cnc(-c3nc(NC4CCN(S(C)(=O)=O)CC4)ncc3C(F)(F)F)c2)c(C(F)(F)F)n1 [Example 246, 4-(1-(6-((Dimethylamino)methyl)-2-(trifluoromethyl)pyridin-3-yl)-1H-imidazol-4-yl)-N-(1-(methylsulfonyl)piperidin-4-yl)-5-(trifluoromethyl)pyrimidin-2-amine]
CS(=O)(=O)N1CCC(Nc2ncc(C(F)(F)F)c(-c3cn(-c4ccc(CNCC(F)F)cc4C(F)(F)F)cn3)n2)CC1 [Example 448, 4-(1-(4-(((2,2-Difluoroethyl)amino)methyl)-2-(trifluoromethyl)phenyl)-1H-imidazol-4-yl)-N-(1-(methylsulfonyl)piperidin-4-yl)-5-(trifluoromethyl)pyrimidin-2-amine]
CN1CCN(Cc2ccc(-n3cnc(-c4nc(NC5CCN(S(C)(=O)=O)CC5)ncc4C(F)(F)F)c3)c(Cl)c2)C1=O [Example 453, 1-(3-Chloro-4-(4-(2-((1-(methylsulfonyl)piperidin-4-yl)amino)-5-(trifluoromethyl)pyrimidin-4-yl)-1H-imidazol-1-yl)benzyl)-3-methylimidazolidin-2-one]
Cc1nc(-c2nc(NC3CCN(S(C)(=O)=O)CC3)ncc2C(F)(F)F)cn1-c1ccc(OCCN(C)C)cc1F [Example 423, 4-(1-(4-(2-(Dimethylamino)ethoxy)-2-fluorophenyl)-2-methyl-1H-imidazol-4-yl)-N-(1-(methylsulfonyl)piperidin-4-yl)-5-(trifluoromethyl)pyrimidin-2-amine]
Cc1nc(-c2nc(NC3CCN(S(C)(=O)=O)CC3)ncc2C(F)(F)F)cn1-c1ccc(N2CC[C@@H](N(C)C)C2)cc1F [Example 109, (R)-4-(1-(4-(3-(Dimethylamino)-pyrrolidin-1-yl)-2-fluorophenyl)-2-methyl-1H-imidazol-4-yl)-N-(1-(methyl-sulfonyl)piperidin-4-yl)-5-(trifluoro-methyl)pyrimidin-2-amine]
Cc1ccc(-n2cnc(-c3nc(N[C@H]4CCN(S(C)(=O)=O)C[C@H]4F)ncc3C(F)(F)F)c2)c(C#N)n1 [Example 51, 3-(4-(2-(((3R,4S)-3-Fluoro-1-(methylsulfonyl)piperidin-4-yl)amino)-5-(trifluoromethyl)pyrimidin-4-yl)-1H-imidazol-1-yl)-6-methylpicolinonitrile]
CS(=O)(=O)N1CCC(Nc2ncc(C(F)(F)F)c(-c3cn(C4CCOCC4)cn3)n2)CC1 [Example 24, N-(1-(Methylsulfonyl)piperidin-4-yl)-4-(1-(tetrahydro-2H-pyran-4-yl)-1H-imidazol-4-yl)-5-(trifluoromethyl)pyrimidin-2-amine]
CNCc1ccc(-n2cnc(-c3nc(NC4CCN(S(C)(=O)=O)CC4)ncc3Cl)c2)c(Cl)c1 [Example 227, 5-Chloro-4-(1-(2-chloro-4-((methyl-amino)methyl)-phenyl)-1H-imidazol-4-yl)-N-(1-(methyl-sulfonyl)piperidin-4-yl)pyrimidin-2-amine]
CS(=O)(=O)N1CCC(Nc2ncc(C(F)(F)F)c(-c3cn(-c4cccc5c4COC5=O)cn3)n2)CC1 [Example 233, 4-(4-(2-((1-(Methylsulfonyl)piperidin-4-yl)amino)-5-(trifluoromethyl)pyrimidin-4-yl)-1H-imidazol-1-yl)isobenzofuran-1(3H)-one]
CS(=O)(=O)N1CCC(Nc2ncc(C(F)(F)F)c(-c3cn(-c4cccnc4C(F)(F)F)cn3)n2)CC1 [Example 32, N-(1-(Methylsulfonyl)piperidin-4-yl)-5-(trifluoromethyl)-4-(1-(2-(trifluoromethyl)pyridin-3-yl)-1H-imidazol-4-yl)pyrimidin-2-amine]
CS(=O)(=O)N1CCC(Nc2ncc(C#N)c(-c3cn(CC(F)F)cn3)n2)CC1 [Example 26, 4-(1-(2,2-Difluoroethyl)-1H-imidazol-4-yl)-2-((1-(methylsulfonyl)piperidin-4-yl)amino)pyrimidine-5-carbonitrile]
CS(=O)(=O)N1CCC(Nc2ncc(C(F)(F)F)c(-c3cn(-c4ccc(Cn5ncnn5)cc4Cl)cn3)n2)CC1 [Example 243, 4-(1-(4-((2H-Tetrazol-2-yl)methyl)-2-chlorophenyl)-1H-imidazol-4-yl)-N-(1-(methylsulfonyl)piperidin-4-yl)-5-(trifluoromethyl)pyrimidin-2-amine]
CCNC(C)c1cccc(-n2cnc(-c3nc(NC4CCN(S(C)(=O)=O)CC4)ncc3C(F)(F)F)c2)c1Cl (centres unmarked) [Example 375, 4-(1-(2-Chloro-3-(1-(ethylamino)ethyl)phenyl)-1H-imidazol-4-yl)-N-(1-(methylsulfonyl)piperidin-4-yl)-5-(trifluoromethyl)pyrimidin-2-amine]
Cn1cc(-c2ccc(-n3cnc(-c4nc(NC5CCN(S(C)(=O)=O)CC5)ncc4C(F)(F)F)c3)c(C(F)(F)F)n2)cn1 [Example 98, 4-(1-(6-(1-Methyl-1H-pyrazol-4-yl)-2-(trifluoromethyl)pyridin-3-yl)-1H-imidazol-4-yl)-N-(1-(methylsulfonyl)piperidin-4-yl)-5-(trifluoromethyl) pyrimidin-2-amine]
CN1CCN(Cc2cccc(-n3cnc(-c4nc(NC5CCN(S(C)(=O)=O)CC5)ncc4C(F)(F)F)c3)c2Cl)CC1 [Example 78, 4-(1-(2-Chloro-3-((4-methylpiperazin-1-yl)methyl)phenyl)-1H-imidazol-4-yl)-N-(1-(methylsulfonyl)piperidin-4-yl)-5-(trifluoromethyl)pyrimidin-2-amine]
Cc1c(-n2cnc(-c3nc(NC4CCN(S(C)(=O)=O)CC4)ncc3C(F)(F)F)c2)ccnc1C#N [Example 292, 3-Methyl-4-(4-(2-((1-(methylsulfonyl)piperidin-4-yl)amino)-5-(trifluoromethyl)pyrimidin-4-yl)-1H-imidazol-1-yl)picolinonitrile]
CS(=O)(=O)N1CCC(Nc2ncc(C(F)(F)F)c(-c3cn(-c4ccc(CO)cc4Cl)cn3)n2)CC1 [Example 231, (3-Chloro-4-(4-(2-((1-(methylsulfonyl)piperidin-4-yl)amino)-5-(trifluoromethyl)pyrimidin-4-yl)-1H-imidazol-1-yl)phenyl)methanol]
Cc1nc(-c2nc(N[C@H]3CCN(S(C)(=O)=O)C[C@H]3F)ncc2C(F)(F)F)cn1-c1ccc(CN2CCC(C)(O)CC2)cc1F [Example 446, 1-(3-Fluoro-4-(4-(2-(((3R,4S)-3-fluoro-1-(methylsulfonyl)piperidin-4-yl)amino)-5-(trifluoromethyl)pyrimidin-4-yl)-2-methyl-1H-imidazol-1-yl)benzyl)-4-methylpiperidin-4-ol]
CN(C)CCc1ccc(-n2cnc(-c3nc(NC4CCN(S(C)(=O)=O)CC4)ncc3C(F)(F)F)c2)c(C#N)c1 [Example 433, 5-(2-(Dimethylamino)ethyl)-2-(4-(2-((1-(methylsulfonyl)piperidin-4-yl)amino)-5-(trifluoromethyl)pyrimidin-4-yl)-1H-imidazol-1-yl)benzonitrile]
CN(C)CCN(C)c1ccc(-n2cnc(-c3nc(NC4CCN(S(C)(=O)=O)CC4)ncc3C(F)(F)F)c2)c(Cl)c1 [Example 149, N^1-(3-Chloro-4-(4-(2-((1-(methyl-sulfonyl)piperidin-4-yl)amino)-5-(trifluoromethyl)-pyrimidin-4-yl)-1H-imidazol-1-yl)-phenyl)-N1,N2,N2-trimethylethane-1,2-diamine]
CS(=O)(=O)N1CCC(Nc2ncc(C(F)(F)F)c(-c3cn(-c4ccccc4CO)cn3)n2)CC1 [Example 237, (2-(4-(2-((1-(Methylsulfonyl)piperidin-4-yl)amino)-5-(trifluoromethyl)pyrimidin-4-yl)-1H-imidazol-1-yl)phenyl)methanol]
CN(C)Cc1ccc(-n2cnc(-c3nc(NC4CCN(S(C)(=O)=O)CC4)ncc3C(F)(F)F)c2)c(Cl)c1 [Example 175, 4-(1-(2-Chloro-4-((dimethylamino)methyl)phenyl)-1H-imidazol-4-yl)-N-(1-(methylsulfonyl)piperidin-4-yl)-5-(trifluoromethyl)pyrimidin-2-amine]
Cc1nc(-c2nc(NC3CCN(S(C)(=O)=O)CC3)ncc2C(F)(F)F)cn1-c1ccc(N2CCN[C@H](C)C2)cc1F [Example 115, (R)-4-(1-(2-Fluoro-4-(3-methyl-piperazin-1-yl)-phenyl)-2-methyl-1H-imidazol-4-yl)-N-(1-(methyl-sulfonyl)piperidin-4-yl)-5-(trifluoro-methyl)pyrimidin-2-amine]
CS(=O)(=O)N1CCC(Nc2ncc(C(F)(F)F)c(-c3cn(-c4ccc(C(F)(F)F)nc4C#N)cn3)n2)CC1 [Example 64, 3-(4-(2-((1-(Methylsulfonyl)piperidin-4-yl)amino)-5-(trifluoromethyl)pyrimidin-4-yl)-1H-imidazol-1-yl)-6-(trifluoromethyl)picolinonitrile]
CC(O)c1ccc(-n2cnc(-c3nc(NC4CCN(S(C)(=O)=O)CC4)ncc3C(F)(F)F)c2)c(Cl)c1 (centres unmarked) [Example 248, 1-(3-Chloro-4-(4-(2-((1-(methylsulfonyl)piperidin-4-yl)amino)-5-(trifluoromethyl)pyrimidin-4-yl)-1H-imidazol-1-yl)phenyl)ethan-1-ol]
CCN(C)CCOc1ccc(-n2cnc(-c3nc(NC4CCN(S(C)(=O)=O)CC4)ncc3C(F)(F)F)c2)c(C#N)n1 [Example 76, 6-(2-(Ethyl(methyl)amino)ethoxy)-3-(4-(2-((1-(methylsulfonyl)piperidin-4-yl)amino)-5-(trifluoromethyl)pyrimidin-4-yl)-1H-imidazol-1-yl)picolinonitrile]
